Laboratory results reported in patent US20160045505A1, “COMPOUNDS AND COMPOSITIONS FOR THE TREATMENT OF PARASITIC DISEASES” (NOVARTIS AG, priority 2013, published 2016).
Like-named read-outs stand apart in the source and are kept apart here.

What was measured:
[1] = system: L. donovani HU3 strain in mouse peritoneal macrophages; assay: Assay for proliferation of Leishmania parasites in infected mouse peritoneal macrophages (SybrGreen staining, high-content imaging, 5 days); assay type: cell-based, Leishmania donovani; settings: Leishmania donovani, Peritoneal macrophage, L. donovani in mouse peritoneal macrophages, read-out: L. donovani Macrophage EC50
[2] = system: Leishmania donovani axenic amastigote parasites; assay: Leishmania donovani axenic amastigote proliferation assay (Cell TiterGlo luminescence, 2 day incubation); assay type: cell-based; settings: Leishmania donovani, read-out: L. donovani amastigotes EC50
[3] = system: Trypanosoma cruzi amastigotes (Tulahuen strain expressing Lac-Z) cultured in 3T3 fibroblast cells; assay: microbe, parasite or virus in culture; assay type: cell-based; settings: Trypanosoma cruzi, TULAHUEN, Fibroblast, T. cruzi amastigotes in 3T3 fibroblast cells, read-out: T cruzi EC50
[4] = system: Trypanosoma brucei Lister 427 strain, bloodstream form; assay: Assay for proliferation of kinetoplastid parasite Trypanosoma brucei (Cell Titer Glo, 48 hours); assay type: cell-based; settings: Trypanosoma brucei, T. brucei Lister 427 bloodstream form, read-out: T. brucei EC50
In short: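 Bloodstream-form T. brucei Lister 427 in HMI-9 medium was exposed to compound (DMSO vehicle) for 48 hours at 37° C, 5% CO2. Parasite growth was read as ATP by CellTiter-Glo luminescence, with EC50 calculated from percent inhibition.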

[5] = axenic amastigotes, inhibition of proliferation

Compound | EC50 [1] | EC50 ([2]; L. donovani axenic amastigotes) | EC50 [3] | EC50 [4] | EC50 ([1]; inhibition of proliferation) | EC50 [2, 5] | EC50 ([3]; inhibition of proliferation) | EC50 ([4]; inhibition of proliferation)
CC1COC(Nc2ccc(F)c(-c3cn4cc(NC(=O)OC(C)C)cnc4n3)c2)=N1 (centres unmarked) [Compound 502] | 16000 nM | > 25000 nM | 11000 nM | 6730 nM | – | – | – | –
CC(C)OC(=O)Nc1cnc2nc(-c3cc(NC(=O)c4ccc(Br)o4)ccc3F)cn2c1 [Compound 70] | – | – | – | – | 190 nM | 136 nM | 72 nM | 54 nM
Cc1nc(C)c(C(=O)Nc2ccc(F)c(-c3cn4cc(NC(=O)C5CCCOC5)cnc4n3)c2)o1 (centres unmarked) [Compound 154] | – | – | – | – | 2530 nM | 997 nM | 6180 nM | 1480 nM
Cc1nc(C)c(C(=O)Nc2ccc(F)c(-c3cn4cc(-c5cn(C(C)C)cn5)cnc4n3)c2)o1 [Compound 428] | 291 nM | 100 nM | 451 nM | 161 nM | – | – | – | –
CC(C)CNC(=O)Nc1ccc(Cl)c(-c2cn3cc(NC(=O)OC(C)C)cnc3n2)c1 [Compound 263] | – | – | – | – | 3530 nM | 1740 nM | 1320 nM | 1100 nM
O=C(Nc1cnc2nc(-c3cc(NC(=O)N4CCCC4)ccc3F)cn2c1)C1CCCN1 (centres unmarked) [Compound 121] | – | – | – | – | > 50000 nM | 23100 nM | > 20000 nM | 3950 nM
Cc1nc(C)c(C(=O)Nc2ccc(F)c(-c3cn4cc(NC(=O)[C@H]5[C@@H](N)[C@@H]6C=C[C@H]5C6)cnc4n3)c2)o1 [Compound 181] | – | – | – | – | 33100 nM | > 25000 nM | > 20000 nM | 12700 nM
O=C(Nc1ccc(Cl)c(-c2cn3cc(C4=CCNCC4)cnc3n2)c1)N1CCCC1 [Compound 570, N-(4-chloro-3-(6-(1,2,3,6-tetrahydropyridin-4-yl)imidazo[1,2-a]pyrimidin-2-yl)phenyl)pyrrolidine-1-carboxamide] | 13600 nM | 1820 nM | 1990 nM | 248 nM | – | – | – | –
CC(C)Nc1cnc2nc(-c3cc(NC(=O)N4CC(F)(F)C4)ccc3F)cn2c1 [Compound 460, 3,3-difluoro-N-(4-fluoro-3-(6-(isopropylamino)imidazo[1,2-a]pyrimidin-2-yl)phenyl)azetidine-1-carboxamide] | 208 nM | 241 nM | 182 nM | 164 nM | – | – | – | –
Cc1ncc(C(=O)Nc2ccc(F)c(-c3cn4cc(-c5ccccn5)cnc4n3)c2)o1 [Compound 198] | – | – | – | – | 16 nM | 7 nM | 16 nM | 18 nM
CC(C)OC(=O)Nc1cnc2nc(-c3cc(NC(=O)C4CC(=O)C4)ccc3F)cn2c1 [Compound 101] | – | – | – | – | 2520 nM | 636 nM | 9950 nM | 3490 nM
CC(=O)c1ccc(C(=O)Nc2ccc(F)c(-c3cn4cc(NC(=O)OC(C)C)cnc4n3)c2)s1 [Compound 83] | – | – | – | – | 6810 nM | 15400 nM | 7040 nM | > 50000 nM
Cc1nc(C)c(C(=O)Nc2ccc(F)c(-c3cn4cc(-c5cccn5C(=O)OC(C)(C)C)cnc4n3)c2)o1 [Compound 364] | – | – | – | – | 155 nM | 279 nM | 220 nM | 178 nM
Cc1ncoc1C(=O)Nc1ccc(Cl)c(-c2cn3cc(NC(=O)OC(C)C)cnc3n2)c1 [Compound 53] | – | – | – | – | 6270 nM | 448 nM | 572 nM | 386 nM
COC(=O)Nc1cnc2nc(-c3cc(NC(=O)c4oc(C)nc4C)ccc3F)cn2c1 [Compound 310] | – | – | – | – | 564 nM | 243 nM | 1240 nM | 293 nM
Cc1nc(C)c(C(=O)Nc2ccc(F)c(-c3cn4cc(C5=CCN(Cc6ccccc6)CC5)cnc4n3)c2)o1 [Compound 378] | 134 nM | 543 nM | 47 nM | 38 nM | – | – | – | –

Compound | EC50 [1] | EC50 ([2]; L. donovani axenic amastigotes) | EC50 [3] | EC50 [4] | EC50 ([1]; inhibition of proliferation) | EC50 [2, 5] | EC50 ([3]; inhibition of proliferation) | EC50 ([4]; inhibition of proliferation)
CC(C)OC(=O)Nc1cnc2nc(-c3cc(NC(=O)c4ccn(C)n4)ccc3F)cn2c1 [Compound 98] | – | – | – | – | 3340 nM | 645 nM | 549 nM | 503 nM
CC(C)OC(=O)Nc1ccc(F)c(-c2cn3cc(-c4cccnc4)cnc3n2)c1 [Compound 399] | 646 nM | 274 nM | 80 nM | 103 nM | – | – | – | –
O=C(Nc1cnc2nc(-c3cc(NC(=O)N4CCCC4)ccc3F)cn2c1)C1CCCCO1 (centres unmarked) [Compound 129] | – | – | – | – | 1260 nM | 435 nM | 1340 nM | 123 nM
CC(C)OC(=O)Nc1ccc(F)c(-c2cn3cc(-c4ccccc4)cnc3n2)c1 [Compound 331] | – | – | – | – | 360 nM | 396 nM | 53 nM | 116 nM
Cc1ncc(C(=O)Nc2cccc(-c3cn4cc(NC(=O)OC(C)C)cnc4n3)c2)o1 [Compound 202] | – | – | – | – | 2720 nM | 229 nM | > 20000 nM | 249 nM
CC(C)OC(=O)Nc1cnc2nc(-c3cc(NC(=O)N4CCCC4c4ccccn4)ccc3Cl)cn2c1 (centres unmarked) [Compound 259] | – | – | – | – | 23700 nM | > 22100 nM | 10900 nM | 34600 nM
CC(C)OC(=O)N(C)c1cnc2nc(-c3cc(NC(=O)c4ccco4)ccc3Cl)cn2c1 [Compound 561, isopropyl (2-(2-chloro-5-(furan-2-carboxamido)phenyl)imidazo[1,2-a]pyrimidin-6-yl)(methyl)carbamate] | 2140 nM | 740 nM | 139 nM | 286 nM | – | – | – | –
Cn1cnc(-c2cnc3nc(-c4cc(NC(=O)N5CCCC5)ccc4F)cn3c2)c1 [Compound 355] | – | – | – | – | 521 nM | 97 nM | 1140 nM | 86 nM
CC1(O)CN(c2cnc3nc(-c4cc(NC(=O)N5CCCC5)ccc4Cl)cn3c2)C1 [Compound 489] | 7790 nM | 1770 nM | 6710 nM | 152 nM | – | – | – | –
Cc1nc(C)c(C(=O)Nc2ccc(F)c(-c3cn4cc(N5CCCC5)cnc4n3)c2)o1 [Compound 493] | 192 nM | 260 nM | 31 nM | 40 nM | – | – | – | –
O=C(Nc1ccc(F)c(-c2cn3cc(NC4CCOCC4)cnc3n2)c1)N1CCCC1 [Compound 475] | 5980 nM | 1310 nM | 9160 nM | 217 nM | – | – | – | –
COC(=O)c1cnc2nc(-c3cc(NC(=O)c4oc(C)nc4C)ccc3F)cn2c1 [Compound 548, methyl 2-(5-(2,4-dimethyloxazole-5-carboxamido)-2-fluorophenyl)imidazo[1,2-a]pyrimidine-6-carboxylate] | 1070 nM | 651 nM | 539 nM | 518 nM | – | – | – | –
Cc1nc(C)c(C(=O)Nc2ccc(F)c(-c3cn4cc(NC(=O)C5CN(C)CCO5)cnc4n3)c2)o1 (centres unmarked) [Compound 152] | – | – | – | – | 2380 nM | 1730 nM | 4670 nM | 425 nM
CO[C@@H]1CCN(C(=O)Nc2ccc(Cl)c(-c3cn4cc(NC(=O)OC(C)C)cnc4n3)c2)C1 [Compound 265] | – | – | – | – | 4260 nM | 978 nM | 3930 nM | 1550 nM
O=C(Nc1ccc(F)c(-c2cn3cc(F)cnc3n2)c1)N1CC(F)(F)C1 [Compound 233] | – | – | – | – | 2050 nM | 290 nM | 754 nM | 326 nM
Cc1nc(C)c(C(=O)Nc2ccc(F)c(-c3cn4cc(NC(=O)C5CCOC(C(C)C)C5)cnc4n3)c2)o1 (centres unmarked) [Compound 120] | – | – | – | – | 975 nM | 300 nM | 767 nM | 419 nM
